Data: US20260053812A1, “METHODS OF TREATING HYPERTENSION WITH A COMBINATION OF AN ALDOSTERONE SYNTHASE INHIBITOR AND A DIURETIC” (Mineralys Therapeutics, Inc., priority 2022, published 2026)

Test: Adverse events (TEAEs, SAEs, AESI; Safety Analysis Set)
Source text: In analyses performed on the Safety Analysis Set, subjects will be analyzed according to their actual treatment received.

## CC(=O)N[C@H]1CC[C@H](NC(=O)CN2CCN(c3nncc(-c4ccc(C)cc4)n3)CC2)CC1 [Compound A HBr]
100 mg QD Pooled, N 60
  AE requiring dose titration: Hyperkalemia: 2 (3.3%)
  AE requiring dose titration: Hyponatremia: 1 (1.7%)
  AE requiring dose titration: Other possibly related: 0
  AE requiring dose titration: Other unrelated: 0
  AE requiring study drug discontinuation: Hyperkalemia: 2 (3.3%)
  AE requiring study drug discontinuation: Hyponatremia: 1 (1.7%)
  AE requiring study drug discontinuation: Hypotension: 2 (3.3%)
  AE requiring study drug discontinuation: Other possibly related: 1 (1.7%)
  AE requiring study drug discontinuation: Other unrelated: 4 (6.7%)
Example 1 analysis, whole trial
  Serious adverse events (SAEs) related to the study medication: No serious adverse events
Part 1
  Subjects with TEAE resulting in dose modification: 24 subjects
Part 1 100 mg QD, N 29
  AE requiring dose titration: Hyperkalemia: 1 (3.4%)
  AE requiring dose titration: Hyponatremia: 0
  AE requiring dose titration: Other possibly related: 0
  AE requiring dose titration: Other unrelated: 0
  AE requiring study drug discontinuation: Hyperkalemia: 2 (6.9%)
  AE requiring study drug discontinuation: Hyponatremia: 0
  AE requiring study drug discontinuation: Hypotension: 1 (3.4%)
  AE requiring study drug discontinuation: Other possibly related: 1 (3.4%)
  AE requiring study drug discontinuation: Other unrelated: 3 (6.0%)
Part 1, 12.5 mg BID (N = 22)
  On-treatment TEAE, Cardiac disorders, %: (4.5) %
  On-treatment TEAE, Cortisol decreased, %: (9.1) %
  On-treatment TEAE, Cortisol decreased, Mild, %: (9.1) %
  On-treatment TEAE, General disorders and administration site conditions, %: (9.1) %
  On-treatment TEAE, General disorders and administration site conditions, Mild, %: (4.5) %
  On-treatment TEAE, Glomerular filtration rate decreased, %: (13.6) %
  On-treatment TEAE, Glomerular filtration rate decreased, Mild, %: (13.6) %
  On-treatment TEAE, Hyperkalaemia, %: (22.7) %
  On-treatment TEAE, Hyperkalaemia, Mild, %: (18.2) %
  On-treatment TEAE, Hyperkalaemia, Moderate, %: (4.5) %
  On-treatment TEAE, Infections and infestations, %: (4.5) %
  On-treatment TEAE, Infections and infestations, Moderate, %: (4.5) %
  On-treatment TEAE, Investigations, %: (27.3) %
  On-treatment TEAE, Investigations, Mild, %: (22.7) %
  On-treatment TEAE, Investigations, Moderate, %: (4.5) %
  On-treatment TEAE, Metabolism and nutrition disorders, %: (22.7) %
  On-treatment TEAE, Metabolism and nutrition disorders, Mild, %: (18.2) %
  On-treatment TEAE, Metabolism and nutrition disorders, Moderate, %: (4.5) %
  On-treatment TEAE, Nervous system disorders, %: (4.5) %
  On-treatment TEAE, Nervous system disorders, Mild, %: (4.5) %
  On-treatment TEAE, Orthostatic hypotension, %: (4.5) %
  On-treatment TEAE, Orthostatic hypotension, Mild, %: (4.5) %
  On-treatment TEAE, Psychiatric disorders, %: (4.5) %
  On-treatment TEAE, Psychiatric disorders, Moderate, %: (4.5) %
  On-treatment TEAE, Vascular disorders, %: (9.1) %
  On-treatment TEAE, Vascular disorders, Mild, %: (9.1) %
  Subjects with any On-treatment TEAEs leading to withdrawal from study drug, %: 4.5%
  Subjects with any On-treatment TEAEs, Mild, %: (36.4) %
  Subjects with any On-treatment TEAEs, Moderate, %: (22.7) %
  TEAE leading to permanent discontinuation from study drug, Orthostatic hypotension, %: 4.5%
  TEAE leading to permanent discontinuation from study drug, Vascular disorders, %: 4.5%
Part 1, 12.5 mg QD (N = 23)
  On-treatment TEAE, Cardiac disorders, %: (8.7) %
  On-treatment TEAE, Dizziness, %: (4.3) %
  On-treatment TEAE, Gastrointestinal disorders, %: (8.7) %
  On-treatment TEAE, Gastrointestinal disorders, Mild, %: (4.3) %
  On-treatment TEAE, General disorders and administration site conditions, %: (4.3) %
  On-treatment TEAE, Glomerular filtration rate decreased, %: (4.3) %
  On-treatment TEAE, Glomerular filtration rate decreased, Mild, %: (4.3) %
  On-treatment TEAE, Hyperkalaemia, %: (26.1) %
  On-treatment TEAE, Hyperkalaemia, Mild, %: (17.4) %
  On-treatment TEAE, Hyperkalaemia, Moderate, %: (4.3) %
  On-treatment TEAE, Hyperkalaemia, Severe, %: (4.3) %
  On-treatment TEAE, Hypertension, %: (8.7) %
  On-treatment TEAE, Hypertension, Moderate, %: (4.3) %
  On-treatment TEAE, Infections and infestations, %: (13.0) %
  On-treatment TEAE, Infections and infestations, Mild, %: (13.0) %
  On-treatment TEAE, Investigations, %: (13.0) %
  On-treatment TEAE, Investigations, Mild, %: (13.0) %
  On-treatment TEAE, Metabolism and nutrition disorders, %: (26.1) %
  On-treatment TEAE, Metabolism and nutrition disorders, Mild, %: (17.4) %
  On-treatment TEAE, Metabolism and nutrition disorders, Moderate, %: (4.3) %
  On-treatment TEAE, Nervous system disorders, %: (8.7) %
  On-treatment TEAE, Nervous system disorders, Mild, %: (8.7) %
  On-treatment TEAE, Orthostatic hypotension, %: (8.7) %
  On-treatment TEAE, Orthostatic hypotension, Mild, %: (8.7) %
  On-treatment TEAE, Urinary tract infection, %: (4.3) %
  On-treatment TEAE, Urinary tract infection, Mild, %: (4.3) %
  On-treatment TEAE, Vascular disorders, %: (13.0) %
